Test results: ChEMBL document CHEMBL3044875, “Synthesis and antimicrobial activity of some bisoctahydroxanthene-1,8-dione derivatives” (2011)
The source made the active and inactive calls. The calls are words filed in the database; no cut-off is given here.

Key:
Escherichia coli [1] = assay: Antibacterial activity against Escherichia coli ATCC 25922 at 20 ug/disk after 24 hr by disk-diffusion method; format: functional
Bacillus cereus [2] = assay: Antibacterial activity against Bacillus cereus NRRL 3711 at 20 ug/disk after 24 hr by disk diffusion method; format: functional; conditions: for zone of inhibition at 20 µg/disc: NRRL 3711, 24 h, read-out: DIZ
Candida albicans [3] = assay: Antifungal activity against Candida albicans ATCC 10231 at 40 ug/disk after 48 hr by disk-diffusion method; format: functional; conditions: ATCC 10231, 48 h, read-out: DIZ
Proteus vulgaris [4] = assay: Antibacterial activity against Proteus vulgaris NRRL-B-123 at 20 ug/disk after 24 hr by disk diffusion method; format: functional, organism-based
[5] = system: Staphylococcus epidermidis; assay: Antibacterial activity against Staphylococcus epidermidis ATCC 12228 at 140 ug/disk after 24 hr by disk diffusion method; format: functional
Aspergillus niger [6] = assay: Antifungal activity against Aspergillus niger ATCC 10949 at 140 ug/disk after 72 hr by disk diffusion method; format: functional; conditions: for zone of inhibition at 140 µg/disc: ATCC 10949, 72 h, read-out: DIZ
Candida albicans [7] = assay: Antifungal activity against Candida albicans ATCC 10231 at 20 ug/disk after 48 hr by disk-diffusion method; format: functional; conditions: ATCC 10231, 48 h, read-out: DIZ
Bacillus cereus [8] = assay: Antibacterial activity against Bacillus cereus NRRL 3711 at 140 ug/disk after 24 hr by disk diffusion method; format: functional; conditions: for zone of inhibition at 140 µg/disc: NRRL 3711, 24 h, read-out: DIZ
Pseudomonas aeruginosa [9] = assay: Antibacterial activity against Pseudomonas aeruginosa ATCC 27853 at 140 ug/disk after 24 hr by disk-diffusion method; format: functional, organism-based
Staphylococcus aureus [10] = assay: Antibacterial activity against Staphylococcus aureus ATCC 25923 at 140 ug/disc after 24 hr by disk diffusion method; format: functional
Staphylococcus aureus [11] = assay: Antibacterial activity against Staphylococcus aureus ATCC 25923 at 20 ug/disc after 24 hr by disk diffusion method; format: functional
Nocardia [12] = assay: Antibacterial activity against Nocardia canis at 140 ug/disk after 24 hr by disk diffusion method; format: functional
Staphylococcus aureus [13] = assay: Antibacterial activity against Staphylococcus aureus ATCC 25923 at 40 ug/disc after 24 hr by disk diffusion method; format: functional
Rhodotorula mucilaginosa [14] = assay: Antifungal activity against Rhodotorula mucilaginosa at 140 ug/disk after 48 hr by disk diffusion method; format: functional; conditions: for zone of inhibition at 140 µg/disc: read-out: DIZ
Rhodotorula mucilaginosa [15] = assay: Antifungal activity against Rhodotorula mucilaginosa at 20 ug/disk after 48 hr by disk diffusion method; format: functional
Bacillus cereus [16] = assay: Antibacterial activity against Bacillus cereus NRRL 3711 at 40 ug/disk after 24 hr by disk diffusion method; format: functional; conditions: for zone of inhibition at 40 µg/disc: NRRL 3711, 24 h, read-out: DIZ
Proteus vulgaris [17] = assay: Antibacterial activity against Proteus vulgaris NRRL-B-123 at 40 ug/disk after 24 hr by disk diffusion method; format: functional, organism-based
Proteus vulgaris [18] = assay: Antibacterial activity against Proteus vulgaris NRRL-B-123 at 140 ug/disk after 24 hr by disk diffusion method; format: functional, organism-based
Pseudomonas aeruginosa [19] = assay: Antibacterial activity against Pseudomonas aeruginosa ATCC 27853 at 20 ug/disk after 24 hr by disk-diffusion method; format: functional, organism-based
Rhodotorula mucilaginosa [20] = assay: Antifungal activity against Rhodotorula mucilaginosa at 40 ug/disk after 48 hr by disk diffusion method; format: functional
Aspergillus niger [21] = assay: Antifungal activity against Aspergillus niger ATCC 10949 at 40 ug/disk after 72 hr by disk diffusion method; format: functional, organism-based
Pseudomonas aeruginosa [22] = assay: Antibacterial activity against Pseudomonas aeruginosa ATCC 27853 at 40 ug/disk after 24 hr by disk-diffusion method; format: functional, organism-based
Aspergillus niger [23] = assay: Antifungal activity against Aspergillus niger ATCC 10949 at 20 ug/disk after 72 hr by disk diffusion method; format: functional, organism-based
[24] = system: Staphylococcus epidermidis; assay: Antibacterial activity against Staphylococcus epidermidis ATCC 12228 at 40 ug/disk after 24 hr by disk diffusion method; format: functional
Nocardia [25] = assay: Antibacterial activity against Nocardia canis at 20 ug/disk after 24 hr by disk diffusion method; format: functional, organism-based
[26] = system: Staphylococcus epidermidis; assay: Antibacterial activity against Staphylococcus epidermidis ATCC 12228 at 20 ug/disk after 24 hr by disk diffusion method; format: functional, organism-based
Escherichia coli [27] = assay: Antibacterial activity against Escherichia coli ATCC 25922 at 40 ug/disk after 24 hr by disk-diffusion method; format: functional
Nocardia [28] = assay: Antibacterial activity against Nocardia canis at 40 ug/disk after 24 hr by disk diffusion method; format: functional
Escherichia coli [29] = assay: Antibacterial activity against Escherichia coli ATCC 25922 at 140 ug/disk after 24 hr by disk-diffusion method; format: functional
Candida albicans [30] = assay: Antifungal activity against Candida albicans ATCC 10231 at 140 ug/disk after 48 hr by disk-diffusion method; format: functional; conditions: ATCC 10231, 48 h, read-out: DIZ
[31] = ATCC 25922, 24 h, read-out: DIZ
[32] = ATCC 12228, 24 h, read-out: DIZ
[33] = ATCC 25923, 24 h, read-out: DIZ

SMILES: O=C1CC(c2ccccc2)CC2=C1C(c1ccc(C3C4=C(CC(c5ccccc5)CC4=O)OC4=C3C(=O)CC(c3ccccc3)C4)cc1)C1=C(CC(c3ccccc3)CC1=O)O2 (stereo not given)
- diameter of the inhibition zone (DIZ) (Escherichia coli [1]): inactive
- zone of inhibition at 20 µg/disc (Bacillus cereus [2]): 8 mm
- zone of inhibition at 40 µg/disc (Candida albicans [3]): 8 mm
- diameter of the inhibition zone (DIZ) (Proteus vulgaris [4]): inactive
- diameter of the inhibition zone (DIZ) [5]: inactive
- diameter of the inhibition zone (DIZ) (Aspergillus niger [6]): inactive
- zone of inhibition at 20 µg/disc (Candida albicans [7]): 7 mm
- zone of inhibition at 140 µg/disc (Bacillus cereus [8]): 10 mm
- diameter of the inhibition zone (DIZ) (Pseudomonas aeruginosa [9]): inactive
- diameter of the inhibition zone (DIZ) (Staphylococcus aureus [10]): inactive
- diameter of the inhibition zone (DIZ) (Staphylococcus aureus [11]): inactive
- diameter of the inhibition zone (DIZ) (Nocardia [12]): inactive
- diameter of the inhibition zone (DIZ) (Staphylococcus aureus [13]): inactive
- zone of inhibition at 140 µg/disc (Rhodotorula mucilaginosa [14]): 7 mm
- diameter of the inhibition zone (DIZ) (Rhodotorula mucilaginosa [15]): inactive
- zone of inhibition at 40 µg/disc (Bacillus cereus [16]): 10 mm
- diameter of the inhibition zone (DIZ) (Proteus vulgaris [17]): inactive
- diameter of the inhibition zone (DIZ) (Proteus vulgaris [18]): inactive
- diameter of the inhibition zone (DIZ) (Pseudomonas aeruginosa [19]): inactive
- diameter of the inhibition zone (DIZ) (Rhodotorula mucilaginosa [20]): inactive
- diameter of the inhibition zone (DIZ) (Aspergillus niger [21]): inactive
- diameter of the inhibition zone (DIZ) (Pseudomonas aeruginosa [22]): inactive
- diameter of the inhibition zone (DIZ) (Aspergillus niger [23]): inactive
- diameter of the inhibition zone (DIZ) [24]: inactive
- diameter of the inhibition zone (DIZ) (Nocardia [25]): inactive
- diameter of the inhibition zone (DIZ) [26]: inactive
- diameter of the inhibition zone (DIZ) (Escherichia coli [27]): inactive
- diameter of the inhibition zone (DIZ) (Nocardia [28]): inactive
- diameter of the inhibition zone (DIZ) (Escherichia coli [29]): inactive
- zone of inhibition at 140 µg/disc (Candida albicans [30]): 8 mm

SMILES: COc1ccc(C2CC(=O)C3=C(C2)OC2=C(C(=O)CC(c4ccc(OC)c(OC)c4)C2)C3c2cccc(C3C4=C(CC(c5ccc(OC)c(OC)c5)CC4=O)OC4=C3C(=O)CC(c3ccc(OC)c(OC)c3)C4)c2)cc1OC (stereo not given)
- diameter of the inhibition zone (DIZ) (Escherichia coli [1]): inactive
- diameter of the inhibition zone (DIZ) (Bacillus cereus [2]): inactive
- zone of inhibition at 40 µg/disc (Candida albicans [3]): 7 mm
- diameter of the inhibition zone (DIZ) (Proteus vulgaris [4]): inactive
- diameter of the inhibition zone (DIZ) [5]: inactive
- zone of inhibition at 140 µg/disc (Aspergillus niger [6]): 7 mm
- zone of inhibition at 20 µg/disc (Candida albicans [7]): 7 mm
- diameter of the inhibition zone (DIZ) (Bacillus cereus [8]): inactive
- diameter of the inhibition zone (DIZ) (Pseudomonas aeruginosa [9]): inactive
- diameter of the inhibition zone (DIZ) (Staphylococcus aureus [10]): inactive
- diameter of the inhibition zone (DIZ) (Staphylococcus aureus [11]): inactive
- diameter of the inhibition zone (DIZ) (Nocardia [12]): inactive
- diameter of the inhibition zone (DIZ) (Staphylococcus aureus [13]): inactive
- diameter of the inhibition zone (DIZ) (Rhodotorula mucilaginosa [14]): inactive
- diameter of the inhibition zone (DIZ) (Rhodotorula mucilaginosa [15]): inactive
- diameter of the inhibition zone (DIZ) (Bacillus cereus [16]): inactive
- diameter of the inhibition zone (DIZ) (Proteus vulgaris [17]): inactive
- diameter of the inhibition zone (DIZ) (Proteus vulgaris [18]): inactive
- diameter of the inhibition zone (DIZ) (Pseudomonas aeruginosa [19]): inactive
- diameter of the inhibition zone (DIZ) (Rhodotorula mucilaginosa [20]): inactive
- diameter of the inhibition zone (DIZ) (Aspergillus niger [21]): inactive
- diameter of the inhibition zone (DIZ) (Pseudomonas aeruginosa [22]): inactive
- diameter of the inhibition zone (DIZ) (Aspergillus niger [23]): inactive
- diameter of the inhibition zone (DIZ) [24]: inactive
- diameter of the inhibition zone (DIZ) (Nocardia [25]): inactive
- diameter of the inhibition zone (DIZ) [26]: inactive
- diameter of the inhibition zone (DIZ) (Escherichia coli [27]): inactive
- diameter of the inhibition zone (DIZ) (Nocardia [28]): inactive
- diameter of the inhibition zone (DIZ) (Escherichia coli [29]): inactive
- zone of inhibition at 140 µg/disc (Candida albicans [30]): 7 mm

SMILES: CC1(C)CCC2=C(C1=O)C(c1cccc(C3C4=C(CCC(C)(C)C4=O)OC4=C3C(=O)C(C)(C)CC4)c1)C1=C(CCC(C)(C)C1=O)O2
- zone of inhibition at 20 µg/disc (Escherichia coli [1]; [31]): 7 mm
- zone of inhibition at 20 µg/disc (Bacillus cereus [2]): 8 mm
- zone of inhibition at 40 µg/disc (Candida albicans [3]): 9 mm
- diameter of the inhibition zone (DIZ) (Proteus vulgaris [4]): inactive
- zone of inhibition at 140 µg/disc [5, 32]: 10 mm
- zone of inhibition at 140 µg/disc (Aspergillus niger [6]): 7 mm
- zone of inhibition at 20 µg/disc (Candida albicans [7]): 8 mm
- zone of inhibition at 140 µg/disc (Bacillus cereus [8]): 9 mm
- diameter of the inhibition zone (DIZ) (Pseudomonas aeruginosa [9]): inactive
- zone of inhibition at 140 µg/disc (Staphylococcus aureus [10]; [33]): 15 mm
- zone of inhibition at 20 µg/disc (Staphylococcus aureus [11]; [33]): 8 mm
- zone of inhibition at 140 µg/disc (Nocardia [12]; read-out: DIZ): 8 mm
- zone of inhibition at 40 µg/disc (Staphylococcus aureus [13]; [33]): 10 mm
- zone of inhibition at 140 µg/disc (Rhodotorula mucilaginosa [14]): 12 mm
- zone of inhibition at 20 µg/disc (Rhodotorula mucilaginosa [15]; read-out: DIZ): 8 mm
- zone of inhibition at 40 µg/disc (Bacillus cereus [16]): 9 mm
- diameter of the inhibition zone (DIZ) (Proteus vulgaris [17]): inactive
- diameter of the inhibition zone (DIZ) (Proteus vulgaris [18]): inactive
- diameter of the inhibition zone (DIZ) (Pseudomonas aeruginosa [19]): inactive
- zone of inhibition at 40 µg/disc (Rhodotorula mucilaginosa [20]; read-out: DIZ): 9 mm
- diameter of the inhibition zone (DIZ) (Aspergillus niger [21]): inactive
- diameter of the inhibition zone (DIZ) (Pseudomonas aeruginosa [22]): inactive
- diameter of the inhibition zone (DIZ) (Aspergillus niger [23]): inactive
- zone of inhibition at 40 µg/disc [24, 32]: 8 mm
- diameter of the inhibition zone (DIZ) (Nocardia [25]): inactive
- diameter of the inhibition zone (DIZ) [26]: inactive
- zone of inhibition at 40 µg/disc (Escherichia coli [27]; [31]): 8 mm
- zone of inhibition at 40 µg/disc (Nocardia [28]; read-out: DIZ): 7 mm
- zone of inhibition at 140 µg/disc (Escherichia coli [29]; [31]): 9 mm
- zone of inhibition at 140 µg/disc (Candida albicans [30]): 9 mm
